Experimental findings from US8012980B2, “Isoquinolinone derivatives” (AstraZeneca AB, priority 2008, dated 2011) are described below.

This experiment deals with T1, human active recombinant p38 (p38α) (Homo sapiens, UniProt Q16539).
T1 construct: 6His
As to the kind of experiment: p38 Alpha Enzyme Assay (AlphaScreen, biotinylated-ATF2 substrate). In kind it is biochemical. Conditions: means of replicate determinations, pre-incubated for 4 hours at 37° C., SD of assay between 0.2 and 0.3 log units; for IC50: read-out: p38α inhibition Mean pIC50 (converted). As for the experimental part: The ability of the compounds of formula (I) to inhibit p38 kinase may be determined using the following biological assay:
Enzyme assays were performed in polypropylene 96 well plates. The following solutions were added to each well; 10 μL of compound dilutions in assay buffer (20 mM HEPES pH 7.4, containing 20 mM magnesium acetate, 0.005% (w/v) Tween-20, 10 mM DTT) containing 1% (v/v) DMSO or assay buffer containing 1% (v/v) DMSO alone, 70 μL of assay buffer containing 36 nM substrate (biotinylated-ATF2) and 10 μL of an appropriate dilution of human active recombinant p38-6H is tagged. Depending on batch of p38, an appropriate dilution was typically a 5 nM solution to give a final enzyme concentration of 0.5 nM. At this stage, background control wells also received 50 μL of AlphaScreen quench buffer (10 mM HEPES pH 7.4 containing 100 mM EDTA, 0.2% (w/v) bovine serum albumin). The plate was covered, pre-incubated for 4 hours at 37° C. and the enzyme reaction initiated by addition of 10 μL 1 mM ATP. After incubation for a further 45 minutes at 37° C., the reaction was stopped by addition of 50 μL quench reagent and 50 μL of the quenched reaction mixture transferred to an opaque, white 96-well plate. Detection reagent, 25 μL of 10 mM HEPES pH 7.4 containing 100 mM EDTA, 0.2% (w/v) bovine serum albumin, 0.3 nM anti phosphoATF2 antibody and 25 μg/mL of AlphaScreen protein A acceptor and donor beads' (PerkinElmer Inc.), was added to all wells in a darkened room, the plate sealed and left in the dark for at least 5 hours before AlphaScreen readings were taken using a Perkin Elmer EnVision reader. Total, uninhibited activity was determined from assays performed in each assay plate. The mean control in the absence of p38 activity was subtracted from each well. Data were expressed as percent inhibition of total activity using equation 1. Percent Inhibition=100*(1−Test/Control) Eq.1 Where . . . Test=p38 kinase activity in the presence of compound Control=p38 kinase activity in the absence of compound.
pIC50 is defined as the logarithm of the reciprocal of the concentration of compound required for 50% reduction in total p38 kinase activity.
The standard deviation of the p38 enzyme inhibition assay is between 0.2 and 0.3 log units.

T1 sequence (Q16539 whole entry): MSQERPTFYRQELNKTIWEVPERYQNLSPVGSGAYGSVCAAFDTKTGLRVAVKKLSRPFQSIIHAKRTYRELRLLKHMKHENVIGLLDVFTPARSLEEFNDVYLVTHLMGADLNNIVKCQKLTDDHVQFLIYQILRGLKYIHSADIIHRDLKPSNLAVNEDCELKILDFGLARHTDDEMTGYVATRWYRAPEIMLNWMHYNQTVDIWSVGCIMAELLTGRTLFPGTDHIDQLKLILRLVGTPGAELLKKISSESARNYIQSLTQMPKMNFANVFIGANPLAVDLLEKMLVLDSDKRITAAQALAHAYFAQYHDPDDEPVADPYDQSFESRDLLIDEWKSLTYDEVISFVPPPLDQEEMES

Regarding `Cc1c(F)cc(C(=O)NC2CC2)cc1-c1ccc2c(=O)n(CC3(CO)CC3)cc(CN3CCNCC3)c2c1` [Example 19, N-Cyclopropyl-3-fluoro-5-[2-{[1-(hydroxymethyl)cyclopropyl]methyl}-1-oxo-4-(piperazin-1-ylmethyl)-1,2-dihydroisoquinolin-6-yl]-4-methylbenzamide], the IC50 is 0.398 nM.
As to `Cc1c(F)cc(C(=O)NC2CC2)cc1-c1ccc2c(=O)n(CC(C)(C)CO)cc(C(C)N3CCNCC3)c2c1` (single isomer, unassigned) [Example 40, N-Cyclopropyl-3-fluoro-5-[2-(3-hydroxy-2,2-dimethylpropyl)-1-oxo-4-(1-piperazin-1-ylethyl)-1,2-dihydroisoquinolin-6-yl]-4-methylbenzamide], the IC50 is 0.0794 nM.
For `Cc1c(F)cc(C(=O)NC2CC2)cc1-c1ccc2c(=O)n(CC(C)(C)CO)cc([S+]([O-])C3CCNCC3)c2c1` (stereo not shown) [Example 59, N-Cyclopropyl-3-fluoro-5-[2-(3-hydroxy-2,2-dimethylpropyl)-1-oxo-4-(piperidin-4-ylsulfinyl)-1,2-dihydroisoquinolin-6-yl]-4-methylbenzamide], the IC50 was 0.501 nM.
`Cc1c(F)cc(C(=O)NC2CC2)cc1-c1ccc2c(=O)n(CC(C)(CO)CO)cc(CN3CCN[C@@H](C)C3)c2c1` [Example 36, N-Cyclopropyl-3-fluoro-5-(2-[3-hydroxy-2-(hydroxymethyl)-2-methylpropyl]-4-{[(3S)-3-methylpiperazin-1-yl]methyl}-1-oxo-1,2-dihydroisoquinolin-6-yl)-4-methylbenzamide]: the IC50 was 3.16 nM.
On the same count and under the same terms, for `Cc1c(F)cc(C(=O)NC2CC2)cc1-c1ccc2c(=O)n(CC(C)(C)CO)cc(CN3CCCNCC3)c2c1` [Example 23, N-Cyclopropyl-3-[4-(1,4-diazepan-1-ylmethyl)-2-(3-hydroxy-2,2-dimethylpropyl)-1-oxo-1,2-dihydroisoquinolin-6-yl]-5-fluoro-4-methylbenzamide] the value was 0.316 nM; for `Cc1c(F)cc(C(=O)NC2CC2)cc1-c1ccc2c(=O)n(CC(C)(C)CO)cc(CN3CCN(CCCO)CC3)c2c1` [Example 32, N-Cyclopropyl-3-fluoro-5-[2-(3-hydroxy-2,2-dimethylpropyl)-4-{[4-(3-hydroxypropyl)piperazin-1-yl]methyl}-1-oxo-1,2-dihydroisoquinolin-6-yl]-4-methylbenzamide], 0.794 nM.
The same measure, in the same setting: for `Cc1c(F)cc(C(=O)NC2CC2)cc1-c1ccc2c(=O)n(CC(C)(C)CO)cc(S(=O)(=O)N3CC[C@@H](N)C3)c2c1` [Example 54, 3-[4-{[(3R)-3-Aminopyrrolidin-1-yl]sulfonyl}-2-(3-hydroxy-2,2-dimethylpropyl)-1-oxo-1,2-dihydroisoquinolin-6-yl]-N-cyclopropyl-5-fluoro-4-methylbenzamide] the value was 0.251 nM.
As to `Cc1c(F)cc(C(=O)NC2CC2)cc1-c1ccc2c(=O)n(CC(C)(C)CO)cc(CN3CCNC[C@@H]3C)c2c1` [Example 28, N-Cyclopropyl-3-fluoro-5-[2-(3-hydroxy-2,2-dimethylpropyl)-4-{[(2S)-2-methylpiperazin-1-yl]methyl}-1-oxo-1,2-dihydroisoquinolin-6-yl]-4-methylbenzamide], the IC50 was 0.794 nM.
For `Cc1c(F)cc(C(=O)NC2CC2)cc1-c1ccc2c(=O)n(CC(C)(C)CO)cc(CN3CCN[C@H](CO)C3)c2c1` [Example 17, N-Cyclopropyl-3-fluoro-5-(2-(3-hydroxy-2,2-dimethylpropyl)-4-(((3S)-3-(hydroxymethyl)piperazin-1-yl)methyl)-1-oxo-1,2-dihydroisoquinolin-6-yl)-4-methylbenzamide], the “p38α inhibition Mean pIC50” value is given as 9.6.
As for `Cc1c(F)cc(C(=O)NC2CC2)cc1-c1ccc2c(=O)n(CC(C)(C)CO)cc(SC3CCNCC3)c2c1` [Example 58, N-Cyclopropyl-3-fluoro-5-[2-(3-hydroxy-2,2-dimethylpropyl)-1-oxo-4-(piperidin-4-ylsulfanyl)-1,2-dihydroisoquinolin-6-yl]-4-methylbenzamide], the IC50 is 0.316 nM.
Take `Cc1c(F)cc(C(=O)NC2CC2)cc1-c1ccc2c(=O)n(CC(C)(C)CO)cc(C(C)N3CCC(C)(N)CC3)c2c1` (stereo not shown) [Example 41, 3-{4-[1-(4-Amino-4-methylpiperidin-1-yl)ethyl]-2-(3-hydroxy-2,2-dimethylpropyl)-1-oxo-1,2-dihydroisoquinolin-6-yl}-N-cyclopropyl-5-fluoro-4-methylbenzamide]: the IC50 was 0.631 nM.
On the same count and under the same terms, for `Cc1c(F)cc(C(=O)NC2CC2)cc1-c1ccc2c(=O)n(CC3CC3)cc(S(=O)(=O)N3CCN(C)CC3)c2c1` [Example 48, N-Cyclopropyl-3-{2-(cyclopropylmethyl)-4-[(4-methylpiperazin-1-yl)sulfonyl]-1-oxo-1,2-dihydroisoquinolin-6-yl}-5-fluoro-4-methylbenzamide] the value was 0.398 nM; for `Cc1c(F)cc(C(=O)NC2CC2)cc1-c1ccc2c(=O)n(CC3CC3)cc(SC3CCNCC3)c2c1` [Example 61, N-Cyclopropyl-3-[2-(cyclopropylmethyl)-1-oxo-4-(piperidin-4-ylsulfanyl)-1,2-dihydroisoquinolin-6-yl]-5-fluoro-4-methylbenzamide], 0.1 nM.
For `Cc1c(F)cc(C(=O)NC2CC2)cc1-c1ccc2c(=O)n(CC(CO)CO)cc(CN3CCN[C@@H](C)C3)c2c1` [Example 35, N-Cyclopropyl-3-fluoro-5-(2-[3-hydroxy-2-(hydroxymethyl)propyl]-4-{[(3S)-3-methylpiperazin-1-yl]methyl}-1-oxo-1,2-dihydroisoquinolin-6-yl)-4-methylbenzamide], the IC50 is 5.01 nM.
As for “N-Cyclopropyl-3-fluoro-5-(2-[2-(hydroxymethyl)-2-methylbutyl]-4-{[(3S)-3-methylpiperazin-1-yl]methyl}-1-oxo-1,2-dihydroisoquinolin-6-yl)-4-methylbenzamide [Example 37]”, the “p38α inhibition Mean pIC50” value is reported as 9.5.
In the case of `Cc1c(F)cc(C(=O)NC2CC2)cc1-c1ccc2c(=O)n(CC3(CO)CC3)cc(CN3CCNC[C@H]3C)c2c1` [Example 33, N-Cyclopropyl-3-fluoro-5-(2-{[1-(hydroxymethyl)cyclopropyl]methyl}-4-{[(2R)-2-methylpiperazin-1-yl]methyl}-1-oxo-1,2-dihydroisoquinolin-6-yl)-4-methylbenzamide], the IC50 is 0.158 nM.
With `Cc1c(F)cc(C(=O)NC2CC2)cc1-c1ccc2c(=O)n(CC3(CO)CC3)cc(CN3CCNC[C@@H]3CO)c2c1` [Example 16, N-Cyclopropyl-3-fluoro-5-(2-((1-(hydroxymethyl)cyclopropyl)methyl)-4-(((2R)-2-(hydroxymethyl)piperazin-1-yl)methyl)-1-oxo-1,2-dihydroisoquinolin-6-yl)-4-methylbenzamide], the IC50 is 0.251 nM.
Same read-out and setting: the figure for `Cc1c(F)cc(C(=O)NC2CC2)cc1-c1ccc2c(=O)n(CC(C)(C)CO)cc(CN3CCC(C)(N)CC3)c2c1` [Example 31, 3-{4-[(4-Amino-4-methylpiperidin-1-yl)methyl]-2-(3-hydroxy-2,2-dimethylpropyl)-1-oxo-1,2-dihydroisoquinolin-6-yl}-N-cyclopropyl-5-fluoro-4-methylbenzamide] is 0.794 nM; for `Cc1c(F)cc(C(=O)NC2CC2)cc1-c1ccc2c(=O)n(CC(C)(CO)CO)cc(SC3CCNCC3)c2c1` [Example 66, N-Cyclopropyl-3-fluoro-5-{2-[3-hydroxy-2-(hydroxymethyl)-2-methylpropyl]-1-oxo-4-(piperidin-4-ylsulfanyl)-1,2-dihydroisoquinolin-6-yl}-4-methylbenzamide] it is 0.2 nM; for `Cc1c(F)cc(C(=O)NC2CC2)cc1-c1ccc2c(=O)n(CCC(C)(C)O)cc(CN3CCN[C@@H](CO)C3)c2c1` [Example 14, N-Cyclopropyl-3-fluoro-5-(2-(3-hydroxy-3-methylbutyl)-4-(((3R)-3-(hydroxymethyl)piperazin-1-yl)methyl)-1-oxo-1,2-dihydroisoquinolin-6-yl)-4-methylbenzamide] it is 0.501 nM.
On the same count and under the same terms, the figure for `Cc1c(F)cc(C(=O)NC2CC2)cc1-c1ccc2c(=O)n(CC3(CO)CC3)cc(S(=O)(=O)N3CCCNCC3)c2c1` [Example 57] is 0.158 nM.
Still for that read-out and setting: the figure for `Cc1c(F)cc(C(=O)NC2CC2)cc1-c1ccc2c(=O)n(CC(C)(C)CO)cc(S(=O)(=O)NCCN(C)C)c2c1` [Example 56, N-cyclopropyl-3-[4-{[2-(dimethylamino)ethyl]sulfamoyl}-2-(3-hydroxy-2,2-dimethylpropyl)-1-oxo-1,2-dihydroisoquinolin-6-yl]-5-fluoro-4-methylbenzamide] is 0.794 nM.
